5 molecules from patent US4127665A, “Thienohydantoin derivatives” (Pfizer Inc., priority 1978, dated 1978) can be followed below.

Structures are written as SMILES. Like-named read-outs stand apart in the source and are kept apart here.

By inhibition is commonly meant the relative decrease from the control value, in per cent.

The target of one experiment is T1, aldose reductase (Bos taurus, UniProt P16116).
T1 construct: partially purified aldose reductase enzyme obtained from calf lens; from tissue; host or cells: calf lens
Nature of the experiment: Inhibition of aldose reductase enzyme activity (partially purified enzyme from calf lens). In kind it is biochemical. The following applies: for inhibition at 100 µM: 10^-4 M; for inhibition at 10 µM: 10^-5 M; for inhibition at 1 µM: 10^-6 M; for inhibition at 1 µM / inhibition at 0.1 µM: low negative values not significant; for inhibition at 0.1 µM: 10^-7 M. As to the method:
The spiro-thienohydantoins of Examples 1 through 5 were tested for their ability to reduce or inhibit aldose reductase enzyme activity, following the procedure described in U.S. Pat. No. 3,821,383 and based on the procedure of Hayman et. al., Journal of Biological Chemistry, 240, 877 (1965). The substrate employed was partially purified aldose reductase enzyme obtained from calf lens. The results obtained with each compound at a concentration of 10^-4 M are expressed as percent inhibition of enzyme activity.
The test of Example 6 was repeated at different concentrations of the compound under test, namely 10^-4 M, 10^-5 M, 10^-6 M, and 10^-7 M.
In this test, values below 20 are not always experimentally and statistically significant.

The subject of experiment [1] is sorbitol accumulation in the sciatic nerve of streptozotocinized (i.e., diabetic) rats. Nature of the experiment: Inhibition of sorbitol accumulation in the sciatic nerve of streptozotocinized (diabetic) rats. The format is in vivo, rat. The note with it: measured 27 hours after induction, vs untreated. The procedure:
The compounds of Examples 4 and 5 were tested for their ability to reduce or inhibit sorbitol accumulation in the sciatic nerve of streptozotocinized (i.e., diabetic) rats by the procedure essentially described in U.S. Pat. No. 3,821,383. In the present study, the amount of sorbitol accumulation in the sciatic nerves was measured 27 hours after induction of diabetes. The compounds were administered orally at the dose levels indicated at 4, 8 and 24 hours following the administration of streptozotocin. The results obtained in this manner are presented below in terms of percent inhibition (%) afforded by the test compound as compared to the case where no compound was administered (i.e., the untreated animal where sorbitol levels normally rise from approximately 50-100 mM/g. tissue to as high as 400 mM/g. tissue in the 27-hour test period): […]

Where [2] appears, read: Example 6 test, calf lens enzyme, read-out: % Inhibition at 10^-4 M.
[3] abbreviates: Example 7 repeat test, values below 20 not always significant, read-out: % Inhibition.
The mark [4] stands for this setting: Example 7 repeat test, values below 20 not always significant.

As to `O=C1NC(=O)C2(CCc3c(Cl)sc(Cl)c32)N1` (stereo not shown) [Example 1], the inhibition at 100 µM at aldose reductase (setting [2]) came to 83%. Also, the inhibition at 100 µM on aldose reductase (setting [3]) came out at 88%. Moreover, at aldose reductase (setting [4]), the inhibition at 10 µM amounted to 67%, the inhibition at 1 µM is 12% and the inhibition at 0.1 µM was -7%.

For `O=C1NC(=O)C2(CCc3c2csc3Cl)N1` (stereo not shown) [Example 2], the inhibition at 100 µM at aldose reductase (setting [2]) worked out at 95%. Moreover, the inhibition at 100 µM on aldose reductase (setting [3]) is 35%. On aldose reductase (setting [4]), the inhibition at 10 µM worked out at 67%, the inhibition at 1 µM was -12% and the inhibition at 0.1 µM was found to be 21%.

In the case of `O=C1NC(=O)C2(CCc3cscc32)N1` (stereo not shown) [Example 3], on aldose reductase (setting [2]), the inhibition at 100 µM worked out at 46%.

On to `O=C1NC(=O)C2(CCc3sc(Cl)cc32)N1` (stereo not shown) [Example 4], for which, in experiment [1] (2.5 mg/kg orally at 4, 8 and 24 hours after streptozotocin), the “% Inhibition (sorbitol accumulation in sciatic nerve)” value was 20%. The inhibition at 100 µM at aldose reductase (setting [2]) came to 80%. In addition, on aldose reductase (setting [3]), the inhibition at 100 µM is 75%. Moreover, at aldose reductase (setting [4]), the inhibition at 10 µM was 55%, the inhibition at 1 µM worked out at 18% and the inhibition at 0.1 µM was found to be 15%.

With `O=C1NC(=O)C2(CCCc3sccc32)N1` (stereo not shown) [Example 5, 6,7-dihydro-spiro[benzo(b)thiophene-4(5H),4'-imidazolidine]-2',5'-dione], in experiment [1] (25 mg/kg orally at 4, 8 and 24 hours after streptozotocin), the “% Inhibition (sorbitol accumulation in sciatic nerve)” value is recorded as 56%. Moreover, the inhibition at 100 µM at aldose reductase (setting [2]) stood at 52%.
